Here are results for 7 molecules from publication PMC2639753 (Bioorganic & medicinal chemistry, 2008).

One data set concerns HIV-1 (IIIB). The data set is described as follows: Antiviral activity against HIV-1. As to conditions: MT-2 cells.
The next data set deals with HIV-1 RT (Human immunodeficiency virus type 1 group M subtype B, UniProt P03366). The data set is described as follows: In vitro steady-state RT inhibition assay. Format: biochemical.

As to `COc1ccc(OCCCC#N)c(CCNC(=S)Nc2ccc(Br)cn2)c1` [6m], the “activity relative to HI-236 in cell culture” value in the data set on HIV-1 (IIIB) is “equal to HI-236”.
Turning to `COc1ccc(OCCCO)c(CCNC(=S)Nc2ccc(Br)cn2)c1` [6o], on HIV-1 RT, the “activity relative to HI-236 in the RT assay” value was “as active as HI-236”.
At HIV-1 RT, `COC(=O)COc1ccc(OC)cc1CCNC(=S)Nc1ccc(Br)cn1` [6k, N-(5-Bromo-2-pyridinyl)-N′-[2-(2-methoxycarbonylmethyloxy-5-methoxyphenyl)ethyl]-thiourea] registered an IC50 of 100 nM. Also, on HIV-1 RT (RT IC50 versus cell-culture EC50), the “fold improvement in RT assay over cell culture” value came out at 120 fold.
As for `C#CCOc1ccc(OC)cc1CCNC(=S)Nc1ccc(Br)cn1` [6b, N-(5-Bromo-2-pyridinyl)-N′-[2-(5-methoxy-2-propargyloxyphenyl)ethyl]-thiourea], the “activity relative to HI-236 in cell culture” value with HIV-1 (IIIB) is “equal to HI-236”.
As for `C#CCCCOc1ccc(OC)cc1CCNC(=S)Nc1ccc(Br)cn1` [6d, N-(5-Bromo-2-pyridinyl)-N′-{2-[5-methoxy-2-(4-pentynyl-1-oxy)phenyl]ethyl}-thiourea], the “activity relative to HI-236 in the RT assay” value on HIV-1 RT is given as “as active as HI-236”.
Turning to `C#CCCOc1ccc(OC)cc1CCNC(=S)Nc1ccc(Br)cn1` [6c, N-(5-Bromo-2-pyridinyl)-N′-{2-[2-(3-butynyl-1-oxy)-5-methoxyphenyl]ethyl}-thiourea], the “fold increase in activity compared to HI-236 in the RT assay” value on HIV-1 RT was found to be 7 fold.
For the molecule `C#CCOCCOc1ccc(OC)cc1CCNC(=S)Nc1ccc(Br)cn1` [6i], the “T.I (in vitro therapeutic index CC50/EC50)” value with HIV-1 (IIIB) was found to be 100.

As usually defined, the IC50 is the concentration at which inhibition is half-maximal.
